Target: Acetylcholinesterase (Homo sapiens, UniProt P22303)
Assay: Inhibition of recombinant human AChE
Details: read-out: kon (M-1-s-1)

Chain of Acetylcholinesterase (P22303 whole entry): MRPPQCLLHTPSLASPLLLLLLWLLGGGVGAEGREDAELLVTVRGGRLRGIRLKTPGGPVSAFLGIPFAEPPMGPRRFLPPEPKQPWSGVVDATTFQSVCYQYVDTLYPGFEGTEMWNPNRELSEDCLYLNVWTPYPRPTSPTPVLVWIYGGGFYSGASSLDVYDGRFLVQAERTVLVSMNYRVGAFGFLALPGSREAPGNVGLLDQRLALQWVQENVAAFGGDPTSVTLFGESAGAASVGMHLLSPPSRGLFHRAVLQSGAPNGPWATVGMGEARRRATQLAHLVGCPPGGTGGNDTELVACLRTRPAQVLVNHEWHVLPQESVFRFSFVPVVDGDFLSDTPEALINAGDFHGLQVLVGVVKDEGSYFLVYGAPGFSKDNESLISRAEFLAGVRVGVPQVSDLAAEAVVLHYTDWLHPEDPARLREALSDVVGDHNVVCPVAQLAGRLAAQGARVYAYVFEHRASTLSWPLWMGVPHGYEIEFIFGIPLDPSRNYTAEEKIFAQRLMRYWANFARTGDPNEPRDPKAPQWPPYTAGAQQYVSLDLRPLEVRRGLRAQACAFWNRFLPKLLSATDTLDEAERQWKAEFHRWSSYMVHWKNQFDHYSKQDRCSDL

Compared with CCCC(C)c1cc(OC(=O)N(C)CC)no1 (stereo not drawn), CCCC(C)c1cc(OC(=O)N(C)C)no1 (stereo not drawn) is 5.6-fold higher in kon: 152 M⁻¹ s⁻¹ for the first, 848 M⁻¹ s⁻¹ for the second.

Compared with CNC(=O)Oc1cccc2c1OC(C)(C)C2 [CHEBI:34611], CNC(=O)Oc1cccc2c1OC(C)(C)O2 [CHEBI:34556] is 3.9-fold lower in kon: 7130 M⁻¹ s⁻¹ for the first, 1850 M⁻¹ s⁻¹ for the second.

First: CNC(=O)Oc1ccccc1OC(C)C [CHEBI:34938]
Second: CNC(=O)Oc1cccc(C(C)(C)C)c1
The kon of the first is 7.4-fold lower: 283 M⁻¹ s⁻¹ for the first, 2100 M⁻¹ s⁻¹ for the second.

Compared with CCCC(C)c1cc(OC(=O)N2CCCC2)no1 (stereo not drawn), CCCC(C)c1cc(OC(=O)N2CCOCC2)no1 (stereo not drawn) is 1.7-fold higher in kon: 27 M⁻¹ s⁻¹ for the first, 44.7 M⁻¹ s⁻¹ for the second.

CN(C)C(=O)Oc1cc(CCC2CCC2)on1 and CN(C)C(=O)Oc1cc(CCC2CC2)on1 are within 1.5-fold of each other in kon: 121 M⁻¹ s⁻¹ for the first, 138 M⁻¹ s⁻¹ for the second.

Going from CCC(CC)c1cc(OC(=O)N(C)C)no1 to CCCCC(CC)c1cc(OC(=O)N(C)C)no1 (stereo not drawn), the kon falls from 151 M⁻¹ s⁻¹ to 35.5 M⁻¹ s⁻¹ (4.3-fold).

Compared with CCC(C)Cc1cc(=O)n(C(=O)N(C)C)o1 (stereo not drawn), CC(C)Cc1cc(=O)n(C(=O)N(C)C)o1 is 3.6-fold lower in kon: 1870 M⁻¹ s⁻¹ for the first, 515 M⁻¹ s⁻¹ for the second.

First: CN(C)C(=O)Oc1cc(C2CCCC2)on1
Second: CN(C)C(=O)Oc1cc(C2CCC2)on1
The kon of the first is 2.5-fold higher: 77 M⁻¹ s⁻¹ for the first, 31 M⁻¹ s⁻¹ for the second.

Going from CC(C)c1cc(=O)n(C(=O)N(C)C)o1 to CCC(C)c1cc(=O)n(C(=O)N(C)C)o1 (stereo not drawn), the kon rises from 9350 M⁻¹ s⁻¹ to 36200 M⁻¹ s⁻¹ (3.9-fold).

First: CC(C)c1cc(OC(=O)N(C)C)no1
Second: CCC(C)c1cc(OC(=O)N(C)C)no1 (stereo not drawn)
The kon of the first is 13-fold lower: 74.3 M⁻¹ s⁻¹ for the first, 1000 M⁻¹ s⁻¹ for the second.

CC(C)CCc1cc(OC(=O)N(C)C)no1 and CC(C)Cc1cc(OC(=O)N(C)C)no1 are within 1.5-fold of each other in kon: 31.8 M⁻¹ s⁻¹ for the first, 26.5 M⁻¹ s⁻¹ for the second.

First: CN(C)C(=O)n1oc(C2CCC2)cc1=O
Second: CN(C)C(=O)n1oc(C2CC2)cc1=O
The kon of the first is 2.3-fold higher: 3880 M⁻¹ s⁻¹ for the first, 1720 M⁻¹ s⁻¹ for the second.

First: CCCC(C)c1cc(=O)n(C(=O)N2CCCC2)o1 (stereo not drawn)
Second: CCCC(C)c1cc(=O)n(C(=O)N2CCC2)o1 (stereo not drawn)
The kon of the first is 4.9-fold lower: 6320 M⁻¹ s⁻¹ for the first, 31000 M⁻¹ s⁻¹ for the second.

First: CN(C)C(=O)Oc1cc(C2CC2)on1
Second: Cc1cc(OC(=O)N(C)C)no1
The kon of the first is 17-fold higher: 33.7 M⁻¹ s⁻¹ for the first, 1.97 M⁻¹ s⁻¹ for the second.

Going from CN(C)C(=O)Oc1cc(CCC2CCCC2)on1 to CN(C)C(=O)n1oc(CCC2CCCC2)cc1=O, the kon rises from 218 M⁻¹ s⁻¹ to 1530 M⁻¹ s⁻¹ (7-fold).

Compared with CCC(C)Cc1cc(OC(=O)N(C)C)no1 (stereo not drawn), CN(C)C(=O)Oc1cc(CC(C)(C)C)on1 is 3.9-fold lower in kon: 28.3 M⁻¹ s⁻¹ for the first, 7.33 M⁻¹ s⁻¹ for the second.

Compared with Cc1cc(=O)n(C(=O)N(C)C)o1, CC(C)CCc1cc(=O)n(C(=O)N(C)C)o1 is 67-fold higher in kon: 20.3 M⁻¹ s⁻¹ for the first, 1350 M⁻¹ s⁻¹ for the second.

Compared with CCCC(C)c1cc(=O)n(C(=O)N(C)C)o1 (stereo not drawn), CCCC(C)c1cc(=O)n(C(=O)N(C)CC)o1 (stereo not drawn) is 2.9-fold lower in kon: 51800 M⁻¹ s⁻¹ for the first, 18000 M⁻¹ s⁻¹ for the second.

Compared with CN(C)C(=O)n1oc(CCC2CC2)cc1=O, CN(C)C(=O)n1oc(CCC2CCC2)cc1=O is 1.9-fold lower in kon: 2400 M⁻¹ s⁻¹ for the first, 1240 M⁻¹ s⁻¹ for the second.

Going from CCCC(C)c1cc(=O)n(C(=O)N(CC)CC)o1 (stereo not drawn) to CCC(CC)c1cc(=O)n(C(=O)N(C)C)o1, the kon rises from 3000 M⁻¹ s⁻¹ to 33200 M⁻¹ s⁻¹ (11-fold).

Compared with CN(C)C(=O)n1oc(C2CCCC2)cc1=O, CCCC(C)c1cc(=O)n(C(=O)N2CCOCC2)o1 (stereo not drawn) is 26-fold lower in kon: 11300 M⁻¹ s⁻¹ for the first, 433 M⁻¹ s⁻¹ for the second.

For CCC(C)n1cc(OC(=O)NC)cn1 (stereo not drawn), the kon was 13400 M⁻¹ s⁻¹.

Reference: BindingDB's records for doi:10.1016/j.bmc.2015.01.026 (Virginia Tech, 2015)
